Assays:
solid tumors = details: cited from earlier work
porcine liver esterase = assay: In vitro release of morphine from pro-drug with porcine liver esterase (HPLC); format: in vitro ADME; details: 20 μM, porcine liver esterase 0.01 U, phosphate buffer pH 7.0, 2 and 16 hours
Protocol: [drawing 26] was incubated with porcine liver esterase (Sigma, 0.01 U) in 20 mM phosphate buffer pH 7.0 for 2 and 16 hours. At the end of the time periods the samples were frozen at −20° C. and were thawed prior to loading onto the HPLC column.

Male Hartley guinea pigs = assay: Randall & Selitto paw pressure analgesia test in guinea pig; format: in vivo; details: pain threshold at 60, 150, 240 and 360 min after administration
Excerpt: Male Hartley guinea pigs (375-475 g) from Elm Hill labs were allowed free access to food and water before being used in the testing of analgesia effects free morphine, morphine complex, and morphine prodrug A complex
The Randall & Selitto test apparatus (Harvard Instruments) is used to measure analgesia and is based on determination of the animal threshold response to pain induced in the paw by the application of a uniformly increasing pressure from a conical tip upon the dorsal surface of the rear paw which rests on a platform. The weight in grams is taken upon withdrawal of the animals paw from the platform with five repeated measurements of pain threshold recorded for each time point (control, 60, 150, 240, and 360 min) after drug administration. Values are normalized to control and the mean±SEM for each time point are recorded. To reduce tissue damage to the animal a weight limit is used for all animals.

## N.N.[Cl][Pt][Cl] [cisplatin]
Solid tumors
  in vivo activity in solid tumor models: no effect

## CN1CC[C@]23c4c5ccc(OC(=O)CCC(=O)OC(C)(C)C)c4O[C@H]2[C@@H](O)C=C[C@H]3[C@H]1C5 [Pro-drug A]
Porcine liver esterase
  release of morphine from pro-drug: sustained release of morphine
Male Hartley guinea pigs
  analgesia / release of morphine in vivo: sustained release of morphine
